Test results as given in a melting point compilation (Tetko et al.; mined from patent text by program, amines drawn as free bases though some values may be those of a salt).

First: Cc1cc(C2=NO[C@@](c3cc(Cl)c(F)c(Cl)c3)(C(F)(F)F)C2)ccc1C(=O)NC1CS(=O)(=O)C1
Second: CCOC(=O)c1cnn(-c2c(Cl)cc(C(F)(F)F)cc2Cl)c1
The melting point of the first is higher: 134 to 136 °C for the first, 57 to 59 °C for the second.

Compared with `C=C1c2ccc(OC)cc2CC(=NO)c2ccccc21`, `NC(=O)NN=Cc1ccc(Oc2ccc3c(c2)CCC3)cc1` is higher in melting point: 125 to 127 °C for the first, 218 to 220 °C for the second.

First: CN1CCN(c2cc3c(cc2C(F)(F)F)[nH]c(=O)c2n[nH]c(=O)n23)CC1
Second: CN1CCN(c2nc(-c3ccc(Cl)cc3)c(CCC(=O)O)o2)CC1
The melting point of the first is higher: greater than 300 °C for the first, 157 to 160 °C for the second.

First: Cc1oc(=O)c(Nc2ccc([N+](=O)[O-])cc2)nc1Cl
Second: CC(C)(C)c1cc(C(=O)c2ccc([N+](=O)[O-])cc2)cc(C(C)(C)C)c1O
The melting point of the first is higher: 230 to 234 °C for the first, 178 to 180 °C for the second.

Compared with `COc1cc(C(=O)CCCN2CCC(OC(=O)c3cc(Cl)c(N)c4c3OCC4)C(OC)C2)cc(OC)c1OC` (stereo unspecified), `CCOc1cc(C2CC=CN(C(=O)c3ccc(NC(=O)OCCCN(C)C)cc3)N2)ccc1OC` (stereo unspecified) is higher in melting point: 132 °C for the first, 193 °C for the second.

First: CS(=O)(=O)c1ccc(-n2nc(C=O)cc2-c2ccccc2)cc1
Second: CC1(C)Oc2ccc(S(=O)(=O)c3ccccc3)cc2C(N)C1O (stereo unspecified)
The melting point of the first is lower: 133 to 136 °C for the first, 160 to 163 °C for the second.

First: CCCCc1nc2c(N)nc3cccnc3c2n1CCNC(=O)c1cccc(O)n1
Second: CC(C)Cc1c2c(nn1Cc1ccccc1)c(N)nc1ncccc12
The melting point of the first is higher: 258 to 260 °C for the first, 232 to 235 °C for the second.

First: N#Cc1cc(F)c(F)cc1[N+](=O)[O-]
Second: O=C(O)CN1C(=O)COc2cc(F)c([N+](=O)[O-])cc21
The melting point of the first is lower: 75 °C for the first, 177 to 183 °C for the second.

First: Cc1cccc(NC(=O)NCC(=O)N2[C@@H](C(=O)OC(C)(C)C)C[C@@H](C(=O)N(C)C)[C@H]2c2ccccc2)c1 (racemic)
Second: CC(C)(C)NC(=O)[C@@H]1Cc2ccccc2CN1C(=O)OCc1ccccc1
The melting point of the first is higher: 199 °C for the first, 105 to 106 °C for the second.

First: CCCCCCCCCC(=O)Nc1ccc2c(c1)C(=O)N(CCN1CCC(c3noc4cc(F)ccc34)CC1)C2=O
Second: CCCCCCCC(=O)N(C)Cc1cccc(-c2ccc(CC3SC(=O)NC3=O)cc2C)c1 (stereo unspecified)
The melting point of the first is higher: 159 to 160 °C for the first, 130 °C for the second.

First: [N-]=[N+]=C1C(=O)CCc2ccccc21
Second: O=C1N(Cc2ccc3nsnc3c2)c2ccccc2C12COc1cc3c(cc12)CCO3 (stereo unspecified)
The melting point of the first is lower: 42.5 to 44.2 °C for the first, 162 to 164 °C for the second.

First: O=C1N(Cc2ccccn2)c2c(F)cccc2C12COc1cc3c(cc12)OCCO3 (stereo unspecified)
Second: O=C1N(CC2COCCO2)c2ccccc2C12COc1cc3c(cc12)OCCCO3 (stereo unspecified)
The melting point of the first is higher: 205 to 207 °C for the first, 137 to 139 °C for the second.

First: COC(=O)c1ccc(NCc2ccc(Cl)c(Cl)c2)cn1
Second: COC(=O)c1cc2ccnc(NCc3ccccc3)c2[nH]1
The melting point of the first is higher: 158 to 161 °C for the first, 154 to 155 °C for the second.

First: O=C(Nc1ccccc1)Oc1ccc(N=C=S)cc1
Second: O=C(NC/C=C/c1ccccc1)c1ccc(Cl)c(Cl)c1
The melting point of the first is higher: 139 to 142 °C for the first, 105 °C for the second.

Compared with `CCCCCCCCCCCCCCCCCCNC(=O)OCC(COC)CN(C(C)=O)S(=O)(=O)CCCI` (stereo unspecified), `CCCCCCCCCCN(C[C@H]1CCC[C@H](CN(CCCCCCCCCC)C(=O)Nc2ccc(N(C)C)cc2)C1)C(=O)Nc1ccc(N(C)C)cc1` (relative stereo) is higher in melting point: 71 to 72 °C for the first, 115 to 117 °C for the second.

Compared with `N#CC=C(N)c1cccs1`, `O=C(c1cccs1)c1cc(Cc2ccccc2)c(O)c2ccccc12` is higher in melting point: 50 to 54 °C for the first, 150 to 152 °C for the second.

First: Cn1c(=O)n(C)c2cc(C(=O)CSCCC(=O)O)c(Cl)cc21
Second: CC(C)(C)OC(=O)N1CCc2c(n(CCO)c3ccc(Cl)c(Cl)c23)CC1
The melting point of the first is lower: 148 to 150 °C for the first, 174 to 176 °C for the second.

Compared with `NC(=O)N1C(=O)Cc2cc(N)ccc21`, `Nc1ccc(C(=O)N2Cc3ccccc3Cc3ccccc32)c(Cl)c1` is lower in melting point: 189 to 191 °C for the first, 158 to 161 °C for the second.

Compared with `CCC(=O)NN=C(c1ccc(Cl)cc1)c1ccc(NS(=O)(=O)c2ccccc2)cc1`, `CCOC(=O)CNC(=O)C=C(c1ccc(Cl)cc1)c1ccc(Cl)cc1` is lower in melting point: 238 to 240 °C for the first, 123 to 124 °C for the second.

First: Cc1ccc(N2C(=O)C(O)=C(C(=O)c3ccc(C(C)C)cc3)C2c2ccc(Cn3nccn3)cc2)nn1 (stereo unspecified)
Second: COc1cccc(CNC(=O)COc2ccn3nc(-c4ccccc4)c(-c4ccc(=O)n(C(C)C)n4)c3c2)c1
The melting point of the first is higher: 285 °C for the first, 166 to 168 °C for the second.

First: O=C1c2ccccc2C(=O)N1Cc1ncc(C(F)(F)F)cc1Cl
Second: NS(=O)(=O)c1cccc(-c2cccc(-c3nc(-c4ccc(Cl)cc4)cc(C(F)(F)F)n3)c2)c1
The melting point of the first is lower: 145 to 146 °C for the first, 165 °C for the second.

Compared with `CN(C(=O)c1cc2c(cn1)[nH]c1ccccc12)c1ccccc1`, `COC(Cc1ccc(OCCc2nc(-c3ccccc3)oc2C)c2ccccc12)C(=O)O` (stereo unspecified) is lower in melting point: 237 to 240 °C for the first, 128 to 130 °C for the second.

First: CCCOc1ccccc1-c1nc2[nH]c(=O)c(=O)[nH]c2c(=O)[nH]1
Second: CCCCCCCCCCCCC1=C(OCC)C(=O)c2ccccc2C1=O
The melting point of the first is higher: 312 to 315 °C for the first, 36 to 38 °C for the second.

First: COc1cc(N)ccc1CN1C(=O)C(C)(c2ccccc2Cl)c2cc(Cl)ccc21 (stereo unspecified)
Second: CCC(=O)N1Cc2ccccc2C2(Cc3ccc(Cl)cc3O2)C1 (stereo unspecified)
The melting point of the first is higher: 232 °C for the first, 106 to 107 °C for the second.

First: CN1C(=O)CN=C(c2ccccc2F)c2cc(NC(=O)NCc3ccccc3)ccc21
Second: CCCCCn1c(C)cc(=O)c(C(=O)Nc2ccccc2)c1-c1ccccc1
The melting point of the first is higher: 174 to 178 °C for the first, 164 to 166 °C for the second.

First: COc1ccc(CCOc2ccc(C(=O)N/C(=C\c3ccc(SC)cc3)C(=O)NCCO)cc2)cc1
Second: C=C(C)c1cc(-c2ccc(OCCNS(C)(=O)=O)cc2)n(-c2ccc(OC)nc2)n1
The melting point of the first is lower: 61 to 63 °C for the first, 96 to 99 °C for the second.

Compared with `Oc1nn(Cc2ccccc2)cc1CCCC1OCCO1`, `CCCCCC(C(=O)O)c1cccc(Oc2ccccc2C)c1O` (stereo unspecified) is higher in melting point: 93 to 94 °C for the first, 113 to 114 °C for the second.

First: CCCCCCCCCCOc1ccc(C(=O)Nc2ccc(C(=O)O)cc2)cc1C12CC3CC(CC(C3)C1)C2
Second: O=C(Nc1ccc(CP(=O)(O)O)cc1)C1=Cc2cc(C3CCCCC3)ccc2CC1
The melting point of the first is higher: 247 to 248 °C for the first, 203 to 205 °C for the second.

First: Oc1ccc(CCNc2ncnc3nccnc23)cc1
Second: COC(=O)c1cc(C#N)c2cc(Cc3ccc(F)cc3)cnc2c1O
The melting point of the first is higher: greater than 210 °C for the first, 178 to 179 °C for the second.

Compared with `COc1cc(COc2nn(Cc3ccccc3)cc2/C=C/C(=O)O)ccc1OCc1nc(-c2ccco2)oc1C`, `COc1cc(NC(=O)OC(C)(C)C)c(NC(=O)CC(=O)c2cccc(-n3ccnc3C)c2)cc1-c1ccccc1F` is lower in melting point: 175 to 176 °C for the first, 83 to 86 °C for the second.

First: CC1=CC(C)(N)NC=C1 (stereo unspecified)
Second: CCOC(=O)c1ccc2oc(CC)nc2c1
The melting point of the first is higher: 79.5 to 81 °C for the first, 35 to 37 °C for the second.

Going from `O=C(O)/C=C/c1ccc(/C=C/c2ccncc2)nc1` to `C(=Cc1ccc(-c2ccccc2)cc1)c1ccccc1`, the melting point falls from greater than 250 °C to 224 °C.

First: Cc1cccc2c(/C=C/C(=O)O)cc(C(C)C)c(O)c12
Second: CCCc1cc(-c2[nH]c3ccccc3c2C)cc(CCC)c1O
The melting point of the first is higher: 122 to 123 °C for the first, 102 °C for the second.

First: O=C(CNc1ccccc1)N1CCC(Cc2ccccc2)CC1
Second: O=[N+]([O-])c1cnn2c1-c1ccccc1NC2C=Cc1ccccc1 (stereo unspecified)
The melting point of the first is lower: 107 to 109 °C for the first, 171 to 173 °C for the second.

Going from `Cc1[nH]c(C=NNC(=O)c2ccc(O)cc2)c(C)c1Br` to `CCOC(=O)C(=O)Nc1cc(C(=O)O)ccc1O`, the melting point rises from 235 °C to greater than 300 °C.

Compared with `CCc1cc2cc(OC)ccc2[nH]1`, `CC1(C)CCC(C)(C)c2cc(CCOc3ccc(C(=O)O)c(O)c3)ccc21` is higher in melting point: 49 to 50 °C for the first, 210 to 212 °C for the second.

Compared with `C[C@]1(COc2ccc(N3CCC(CCOCc4ccc(OC(F)(F)F)cc4)CC3)cc2)Cn2cc([N+](=O)[O-])nc2O1`, `COc1ccc(N2CCN(c3c(C)c(C)c4c(c3C)OC(C)(C)C4c3ccc(C)cc3)CC2)cc1` (stereo unspecified) is lower in melting point: 205 to 207 °C for the first, 160 to 162 °C for the second.

Compared with `CC(C)(C)c1ccc(S(=O)(=O)CS(=O)(=O)c2ccc(C(C)(C)C)cc2)cc1`, `CC(C)(C)c1ccc(CNC(=O)NCc2ccc(NS(C)(=O)=O)c(Cl)c2)cc1` is lower in melting point: 150 to 152 °C for the first, 60 to 61 °C for the second.

First: CCOC(=O)c1cc(OC2CCCCC2=O)[nH]n1 (stereo unspecified)
Second: CCOC(=O)C1=C(C)NC(C)=C(C(=O)OCC)C1c1ccccc1/C=C/C(=O)OC1CCCCCC1
The melting point of the first is lower: 122 to 124 °C for the first, 192 to 194 °C for the second.

First: O=CCc1c(O)c(Br)cc(F)c1F
Second: CCn1c(=O)c2c(nc(/C=C/c3ccc(F)c(Br)c3)n2C)n(CC)c1=O
The melting point of the first is lower: 46.5 to 48 °C for the first, 218 to 219 °C for the second.

Compared with `Clc1cc(Cl)c(OCOCOc2c(Cl)cc(Cl)cc2Cl)c(Cl)c1`, `COCNC(=S)n1nc(Oc2c(Cl)cc(C(F)(F)F)cc2Cl)cc1C` is lower in melting point: 179 to 181 °C for the first, 95 to 96 °C for the second.

Compared with `CC(C)(C#N)c1cc(C(=O)c2cccnc2)cc(C(C)(C)C#N)c1`, `Cc1cc(-c2nc3cccnn3c2-c2ccnc(NC(=O)c3ccncc3)c2)ccc1F` is higher in melting point: 87 to 89 °C for the first, 219 to 220 °C for the second.

First: CC(O)=C(C#N)C(=O)Nc1ccc(Cl)cc1Cl
Second: C=C(C)Cc1c(C)c(NC(C)=O)c(C)c(C)c1O
The melting point of the first is lower: 143 to 144 °C for the first, 209 to 210 °C for the second.

First: O=C(OCC1OC(n2cc(F)c(=O)[nH]c2=O)C(OC(=O)c2ccccc2)C1OC(=O)c1ccccc1)c1ccccc1 (stereo unspecified)
Second: CN(C)c1ccc(NC(=O)N(C)c2cccc(-c3ccc(CC(Nc4ccccc4C(=O)c4ccccc4)C(=O)O)cc3)c2)cc1 (stereo unspecified)
The melting point of the first is higher: 208 to 209 °C for the first, 130 °C for the second.

First: CC12Cc3cnn(-c4ccc(F)cc4)c3C=C1CCC1OC3(CC=C12)C(=O)NC(=O)NC3=O (stereo unspecified)
Second: OC1COC(c2ccc(Cl)cc2)OC1 (stereo unspecified)
The melting point of the first is higher: 235 to 236 °C for the first, 95 to 100 °C for the second.

First: CC1=C(C(=O)OCCN(C)c2ccccc2)C(c2ccccc2C(F)(F)F)c2c(ccnc2OC(C)C)N1 (stereo unspecified)
Second: O=[N+]([O-])c1cccc(Nc2nccc(-c3ccncc3)n2)c1
The melting point of the first is lower: 114 to 116 °C for the first, 282 to 284 °C for the second.

First: CC12CCC3c4cc(C=O)c(O)cc4CCC3C1CCC2O (stereo unspecified)
Second: O=C1NC[C@@H]2CCCC[C@@H]12 (relative stereo)
The melting point of the first is higher: 219 to 221 °C for the first, 85 to 88 °C for the second.

Compared with `CC(C)c1noc2c1C(=O)N(C(C)(C)C)C2=O`, `Cc1cccc(-c2ccc3ccc(N)nc3n2)c1` is higher in melting point: 60 to 62 °C for the first, 180 °C for the second.
